This passage reports time stable results from US20070043102A1, “Oral suspension of tegaserod” (priority 2003, published 2007).

The nature of this data set: Stability study of the oral suspensions (HPLC assay and degradation products). Type of data set: physicochemical. How it is done: The stability study is performed for maximum 3 days at the storage conditions of room temperature (about 20-25° C.) and/or 5° C. ( fridge). The start point (TO) is performed about 1 minute after preparation. Furthermore, a “24 hours” and “3 days” time point at room temperature and 5° C. is performed.
Analytical methods: For each time-point tested, the degradation products of Tegaserod by HPLC are evaluated. Analytical methods are based on Test Methods described below.
Procedure for assay determination: For each time-point, one tablet is crushed according to the above procedure. The crushed tablet is transferred quantitatively into a 100 ml amber glass volumetric flask. 50 ml of the beverage is carefully added and the suspension is shaken vigorously by hand a few time and allowed to stand for the storage time tested. The suspension is re-homogenized, by shaking by hand. For extraction, the flask is filled to the mark with methanol (about 50 ml) then shaken for 30 minutes under magnetic stirring, sonicated for 10 minutes and shaken for 30 minutes under magnetic stirring. An aliquot of the methanol solution is centrifuged. The clear supernatant of the above solution is used as the test solution and is analyzed by HPLC (Isocratic HPLC on reversed phase RP-8 with UV detection). The same procedure is carried out once for each beverage but without tablet powder and the resulting chromatograms are compared for new appearance of any peak.
Procedure for determination of degradation products: In order to enable to reach a sufficiently low limit to quantify the degradation products, the number of tablets to be crushed is increased. For each time-point, 6 tablets for 2 mg dosage strength (or 5 tablets for 6 mg dosage strength) are crushed according to the above procedure. The crushed tablet is transferred quantitatively into a 20 ml for 2 mg dosage strength (or 50 ml amber glass volumetric flask for 6 mg dosage strength). 10 ml for 2 mg dosage strength (or 25 ml for 6 mg dosage strength) of the beverage are added carefully. The suspension is shaken vigorously by hand a few time and is allowed to stand for the storage time tested. The suspension is re-homogenized by shaking by hand. For extraction, the flask is filled to the mark with acetonitrile and is shaken for 30 minutes under magnetic stirring, sonicated for 10 minutes and shaken for 30 minutes under magnetic stirring. An aliquot of the homogenized solution is centrifuged.
The clear supernatant of the above solution is used as the test solution in order to quantify using a gradient HPLC on reversed phase RP-8 with UV detection. The same procedure is carried out once for each beverage but without crushed tablet and the resulting chromatograms are compared and analyzed according to the scheme below.
Acceptance criteria: Tegaserod is assumed stable in the tested media if the following acceptance criteria are met for the time-points studied.

Take `CCCCCNC(=N)NN=Cc1c[nH]c2ccc(OC)cc12` [Tegaserod, 3-(5-methoxy-1H-indol-3-yl-methylene)-N-pentylcarbazimidamide]: the time stable result runs as follows: (crushed tablet in apple juice, fridge (5° C.), 2 mg dosage strength) “at least 24 hours”; (crushed tablet in apple juice, fridge (5° C.), 6 mg dosage strength) “up to 3 days”; (crushed tablet in apple juice, room temperature) “at least 1 hour”; (crushed tablet in orange juice, fridge (5° C.), 2 mg dosage strength) “at least 24 hours”; (crushed tablet in orange juice, fridge (5° C.), 6 mg dosage strength) “up to 3 days”; (crushed tablet in orange juice, room temperature) “at least 1 hour”. Also, the time stable entry runs as follows: (crushed tablet in water, fridge (5° C.), 2 mg dosage strength) “at least 24 hours”; (crushed tablet in water, fridge (5° C.), 6 mg dosage strength) “up to 3 days”; (crushed tablet in water, room temperature) “at least 1 hour”.
